# pKi: −log10 of the molar value.
# Target: human IRAK4 (Homo sapiens (Human), UniProt Q9NWZ3)
# Assay: IRAK4 kinase inhibition, Transcreener fluorescence polarization ADP assay
# Type: biochemical
# Conditions: recombinant full-length His6-IRAK4; 125 uM ATP; 90 min; Ki computed using ATP Km 642 uM
# Description: Compounds were assayed for inhibition of human IRAK4 and IRAK1 catalytic activity using recombinant enzyme produced from insect cells. Full-length IRAK4 protein, carrying an N-terminal His6-Tag, was obtained from Life Technologies (Carlsbad, Calif., USA). The IRAK1 construct was produced internally and was comprised of IRAK1 residues Arg194 to Ser712, preceded by an NH2-terminal His6 tag and the coding sequence for glutathione-S-transferase.
# Chain of human IRAK4 (Q9NWZ3 whole entry): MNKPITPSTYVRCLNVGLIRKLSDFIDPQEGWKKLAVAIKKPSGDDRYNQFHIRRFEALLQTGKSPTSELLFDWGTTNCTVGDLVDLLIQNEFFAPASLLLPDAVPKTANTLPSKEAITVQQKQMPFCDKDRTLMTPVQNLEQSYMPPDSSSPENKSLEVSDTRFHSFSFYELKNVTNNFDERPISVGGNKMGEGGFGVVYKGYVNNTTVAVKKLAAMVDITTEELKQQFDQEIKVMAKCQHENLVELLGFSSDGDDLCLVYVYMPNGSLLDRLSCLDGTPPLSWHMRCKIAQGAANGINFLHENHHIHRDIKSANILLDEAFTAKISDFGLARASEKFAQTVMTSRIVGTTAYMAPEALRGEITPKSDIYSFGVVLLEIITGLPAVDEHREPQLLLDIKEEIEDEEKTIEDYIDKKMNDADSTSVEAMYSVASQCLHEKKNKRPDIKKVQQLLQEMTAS
row,Structure (SMILES),pKi
1,"CC(C)(O)C1(C)Cc2cc(NC(=O)c3cnn4cccnc34)c(N3CCN(CC(N)=O)CC3)cc2O1 (stereo not drawn) [Example 356, N-[6-[4-(2-amino-2-oxo-ethyl)piperazin-1-yl]-2-(1-hydroxy-1-methyl-ethyl)-2-methyl-3H-benzofuran-5-yl]pyrazolo[1,5-a]pyrimidine-3-carboxamide]",8.40
2,"CC1(C)Cc2cc(NC(=O)c3cnn4cccnc34)c(C3CCN(CCO)CC3)cc2O1 [Example 357, N-(6-(1-(2-Hydroxyethyl)piperidin-4-yl)-2,2-dimethyl-2,3-dihydrobenzofuran-5-yl)pyrazolo[1,5-a]pyrimidine-3-carboxamide]",6.39
3,"CC1(C)Oc2cc(NC(=O)c3cnn4cccnc34)c(N3CCOCC3)cc2C1O (stereo not drawn) [Example 358, N-(3-Hydroxy-2,2-dimethyl-5-morpholino-2,3-dihydrobenzofuran-6-yl)pyrazolo[1,5-a]pyrimidine-3-carboxamide]",6.29
4,"CC1(C)Oc2cc(NC(=O)c3cnn4cccnc34)c(N3CCOCC3)cc2C1=O [Example 359, N-(2,2-dimethyl-5-morpholino-3-oxo-2,3-dihydrobenzofuran-6-yl)pyrazolo[1,5-a]pyrimidine-3-carboxamide]",6.59
5,"CC(C)(O)[C@@]1(C)Cc2cc(NC(=O)c3cnn4cccnc34)c(N3CCN(CC(F)F)CC3)cc2O1 [Example 360, (R)—N-(6-(4-(2,2-Difluoroethyl)piperazin-1-yl)-2-(2-hydroxypropan-2-yl)-2-methyl-2,3-dihydrobenzofuran-5-yl)pyrazolo[1,5-a]pyrimidine-3-carboxamide]",8.20
6,"CC(C)(O)[C@]1(C)Cc2cc(NC(=O)c3cnn4cccnc34)c(N3CCN(CC(F)F)CC3)cc2O1 [Example 361, (S)—N-(6-(4-(2,2-Difluoroethyl)piperazin-1-yl)-2-(2-hydroxypropan-2-yl)-2-methyl-2,3-dihydrobenzofuran-5-yl)pyrazolo[1,5-a]pyrimidine-3-carboxamide]",8.04
7,"CC1(COC(F)F)Cc2cc(NC(=O)c3cnn4cccnc34)c(N3CCN(CC(F)F)CC3)cc2O1 (stereo not drawn) [Example 362, N-(6-(4-(2,2-difluoroethyl)piperazin-1-yl)-2-((difluoromethoxy)methyl)-2-methyl-2,3-dihydrobenzofuran-5-yl)pyrazolo[1,5-a]pyrimidine-3-carboxamide]",8.17

# Further compounds by rising pKi, results first:
row,pKi,Structure (SMILES)
1,8.22,"CC(C)(O)[C@@]1(C)Cc2cc(NC(=O)c3cnn4cccnc34)c(N3CCC(CO)CC3)cc2O1 [Example 355, (R)—N-(6-(4-(Hydroxymethyl)piperidin-1-yl)-2-(2-hydroxypropan-2-yl)-2-methyl-2,3-dihydrobenzofuran-5-yl)pyrazolo[1,5-a]pyrimidine-3-carboxamide]"
2,8.24,"C[C@]1(CC(F)F)Cc2cc(NC(=O)c3cnn4cccnc34)c(N3CCOCC3)cc2O1 [Example 367, N-[(2R)-2-(2,2-difluoroethyl)-2-methyl-6-morpholino-3H-benzofuran-5-yl]pyrazolo[1,5-a]pyrimidine-3-carboxamide]"
3,8.28,"CC(C)(O)C1(C)Cc2cc(NC(=O)c3cnn4cccnc34)c(N3CCC(CO)CC3)cc2O1 (stereo not drawn) [Example 363, N-(6-(4-(hydroxymethyl)piperidin-1-yl)-2-(2-hydroxypropan-2-yl)-2-methyl-2,3-dihydrobenzofuran-5-yl)pyrazolo[1,5-a]pyrimidine-3-carboxamide]"
4,8.43,"CC1(C(F)F)Cc2cc(NC(=O)c3cnn4cccnc34)c(N3CCN(CC(F)F)CC3)cc2O1 (stereo not drawn) [Example 364, N-(6-(4-(2,2-Difluoroethyl)piperazin-1-yl)-2-(difluoromethyl)-2-methyl-2,3-dihydrobenzofuran-5-yl)pyrazolo[1,5-a]pyrimidine-3-carboxamide]"
5,8.52,"CC(C)(O)[C@]1(C)Cc2cc(NC(=O)c3cnn4cccnc34)c(N3CCC(CO)CC3)cc2O1 [Example 354, (S)—N-(6-(4-(Hydroxymethyl)piperidin-1-yl)-2-(2-hydroxypropan-2-yl)-2-methyl-2,3-dihydrobenzofuran-5-yl)pyrazolo[1,5-a]pyrimidine-3-carboxamide]"

# Source: patent US10988478B1, “Pyrazolo[1,5a]pyrimidine derivatives as IRAK4 modulators” (Genentech, Inc., priority 2015, dated 2021)
